Assay results: publication PMC5487681, “Identification of Antifungal H^+-ATPase Inhibitors with Effect on Plasma Membrane Potential” (Antimicrobial Agents and Chemotherapy, 2017)
In brackets after ≈: the same amount, converted by molar mass. Like-named read-outs stand apart in the source and are kept apart here.

What was measured:
S. cerevisiae = test: Medium acidification assay, S. cerevisiae; assay type: cell-based, Saccharomyces cerevisiae; conditions: Saccharomyces cerevisiae, 0.2 h; 50% inhibition of medium acidification, 12 min, n = 2 to 3
Procedure: (§1) Frozen stocks of C. albicans and S. cerevisiae were transferred to YPD agar plates and incubated overnight at 34°C. On the next day, the cells were suspended and washed twice in 50 mM KCl, pH 6.7, after pelleting of the cells by centrifugation at 3,000 × g for 5 min. The cells were then starved overnight at 4°C in the KCl solution. […] The pH drop was then monitored by determination of the fluorescent signal with excitation at 485 nm and emission at 538 nm on a Fluoroskan Ascent plate reader (Thermo Fisher Scientific) for 12 min. The rate of medium acidification was calculated on the basis of the slope of the drop in fluorescence.

C. albicans = test: Medium acidification assay, C. albicans; assay type: cell-based, Candida albicans; conditions: Candida albicans, 0.2 h; 50% inhibition of medium acidification, 12 min, n = 2 to 3; read-out: IC50 for acidification, C. albicans
Procedure: as §1

Na^+,K^+-ATPase = target: T1, Na^+,K^+-ATPase (Sus scrofa, UniProt P05024); test: ATP hydrolysis assay, Na+,K+-ATPase; assay type: biochemical, porcine; conditions: Table 1, read-out: IC50 Na^+,K^+-ATPase
T1 construct: from tissue; host or cells: porcine kidney (gift of Natalya Fedosova, Aarhus University)
Procedure: (§2) Rabbit sarcoplasmic reticulum membranes containing sarcoplasmic endoplasmic reticulum Ca^2+-ATPase (SERCA) were kindly provided by Claus E. Olesen and Jesper V. Møller, Aarhus University, and prepared as described in reference. Porcine kidney Na^+,K^+-ATPase was kindly provided by Natalya Fedosova, Aarhus University, and prepared as described in reference.
(§3) The protein activity levels were determined by measuring the amount of free phosphate produced from the ATP hydrolysis reaction. The assay was performed as described in reference. Each well contained ATPase enzyme, 2 μl of inhibitor (usually in the range of 333 to 0.01 μM) dissolved in dimethyl sulfoxide (DMSO) (Duchefa Biochemie, Haarlem, The Netherlands), and an assay buffer dependent on the enzyme for a final volume of 60 μl. Possible compound precipitation in the assay buffer was monitored using a Nephelostar plate reader measuring turbidity, and the information was taken into account in the IC50 determination. Pma1 assay buffer consisted of 20 mM 3-(N-morpholino)propanesulfonic acid (MOPS)–NaOH, pH 6.5 or 7.0, 8 mM MgSO4, 50 mM KNO3 (a vacuolar ATPase inhibitor), 25 mM sodium azide (a mitochondrial ATPase inhibitor), and 250 μM sodium molybdate (an acid phosphatase inhibitor). SERCA buffer consisted of 9 mM MOPS-NaOH, pH 7, 2.7 mM MgCl2, 90 μM CaCl2, and 72 mM KCl. Na^+,K^+-ATPase buffer consisted of 30 mM MOPS-NaOH, pH 7, 40 mM NaCl, 4 mM MgCl2, and 20 mM KCl. The concentration of protein was adjusted to obtain a signal of the optical density at 860 nm (OD860) of between 0.5 and 1.0 in the untreated samples (for all Pma1 batches, ∼1 to 2 μg/well; for SERCA and Na^+,K^+-ATPase, ∼0.1 to 0.2 μg/well).

Ca^2+-ATPase (SERCA1a) [1] = target: T2, Ca^2+-ATPase (SERCA1a) (Oryctolagus cuniculus, UniProt P04191); test: ATP hydrolysis assay, SERCA; assay type: biochemical, rabbit; conditions: Table 1; ATP hydrolysis at pH 7.4 (compounds marked b)
T2 sequence (P04191 1-994 isoform P04191-2): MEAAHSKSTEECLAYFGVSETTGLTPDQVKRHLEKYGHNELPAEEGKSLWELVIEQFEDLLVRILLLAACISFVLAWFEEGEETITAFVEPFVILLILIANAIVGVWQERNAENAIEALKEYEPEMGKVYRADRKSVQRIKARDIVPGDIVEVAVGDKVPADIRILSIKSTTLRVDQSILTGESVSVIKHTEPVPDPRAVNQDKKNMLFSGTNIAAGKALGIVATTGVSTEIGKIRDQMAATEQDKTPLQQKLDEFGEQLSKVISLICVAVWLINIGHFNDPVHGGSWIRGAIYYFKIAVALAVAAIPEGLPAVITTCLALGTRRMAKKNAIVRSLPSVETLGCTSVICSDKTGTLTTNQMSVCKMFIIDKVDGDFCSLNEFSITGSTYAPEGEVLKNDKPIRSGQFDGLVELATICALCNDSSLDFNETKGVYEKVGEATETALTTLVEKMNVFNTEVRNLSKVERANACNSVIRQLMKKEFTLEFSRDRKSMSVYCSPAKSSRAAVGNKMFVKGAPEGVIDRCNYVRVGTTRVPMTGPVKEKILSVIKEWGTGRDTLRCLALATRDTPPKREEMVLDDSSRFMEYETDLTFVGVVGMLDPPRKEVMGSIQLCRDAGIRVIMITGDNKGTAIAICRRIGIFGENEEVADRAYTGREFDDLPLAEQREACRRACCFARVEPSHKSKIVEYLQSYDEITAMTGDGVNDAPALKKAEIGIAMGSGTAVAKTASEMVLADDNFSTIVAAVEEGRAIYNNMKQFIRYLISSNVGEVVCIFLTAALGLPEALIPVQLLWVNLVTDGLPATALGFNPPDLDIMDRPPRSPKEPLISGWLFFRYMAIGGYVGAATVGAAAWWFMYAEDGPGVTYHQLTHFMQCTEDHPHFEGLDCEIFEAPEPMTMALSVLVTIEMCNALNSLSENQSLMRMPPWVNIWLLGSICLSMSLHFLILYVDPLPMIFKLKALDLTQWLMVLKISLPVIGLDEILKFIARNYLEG

[2] = test system: Candida glabrata ATCC 90030; test: microbe, parasite or virus in culture; conditions: Nakaseomyces glabratus, ATCC90030, pH 7, read-out: MIC C. glabrata
Procedure: (§4) The following fungal isolates were used: Saccharomyces cerevisiae ATCC 9763, Candida albicans SC5314, Candida parapsilosis ATCC 22019, Candida tropicalis Ct016, Candida glabrata ATCC 90030, Aspergillus fumigatus ATCC 13073, and Aspergillus flavus ATCC MYA-1005. Frozen stocks of yeast isolates in glycerol (final concentration, 20%) were prepared by growing the cells to log phase in YPD medium at 30°C and 150 rpm. Frozen stocks of mold spores were prepared by harvesting spores from 7-day-old potato glucose agar plates in phosphate-buffered saline, 0.1% Tween 80 and aliquoting these spores in the presence of glycerol (final concentration, 20%). The cells were stored at −80°C. The cells or spores were thawed and diluted to a final concentration of 0.5 × 10^5 to 2.5 × 10^5 CFU/ml in sterile Milli-Q H2O. […] The plate was incubated for 20 to 24 h at 34°C (72 h for molds), and the OD490 was measured on a Victor X5 (PerkinElmer) plate reader. Mold growth assay plates were also visually inspected. The MIC was defined as the lowest concentration inhibiting the visual growth of the microorganism.

Candida tropicalis Ct016 = test: microbe, parasite or virus in culture; conditions: Candida tropicalis, CT016, pH 7, read-out: MIC C. tropicalis
Procedure: as §4

[3] = test system: Aspergillus fumigatus ATCC 13073; test: microbe, parasite or virus in culture; conditions: Aspergillus fumigatus, ATCC13073, 72 h, pH 7, read-out: MIC A. fumigatus
Procedure: as §4

Candida albicans SC5314 = test: microbe, parasite or virus in culture; conditions: Candida albicans, SC5314, pH 7, read-out: MIC C. albicans
Procedure: as §4

[4] = test system: Candida parapsilosis ATCC 22019; test: microbe, parasite or virus in culture; conditions: Lodderomyces parapsilosis, ATCC22019, pH 7, read-out: MIC C. parapsilosis
Procedure: as §4

S. cerevisiae Pma1 = S. cerevisiae Pma1 (Saccharomyces cerevisiae, UniProt P05030); test: ATP hydrolysis assay, S. cerevisiae plasma membranes containing Pma1; assay type: biochemical; set-up: containing the full-length cDNA of the S. cerevisiae plasma membrane H^+-ATPase isoform PMA1; made in house; host or cells: S. cerevisiae RS72 (PMA1 cDNA under PMA1 promoter); also wild-type S. cerevisiae ATCC 9763
Sequence of S. cerevisiae Pma1 (P05030 whole entry, canonical isoform): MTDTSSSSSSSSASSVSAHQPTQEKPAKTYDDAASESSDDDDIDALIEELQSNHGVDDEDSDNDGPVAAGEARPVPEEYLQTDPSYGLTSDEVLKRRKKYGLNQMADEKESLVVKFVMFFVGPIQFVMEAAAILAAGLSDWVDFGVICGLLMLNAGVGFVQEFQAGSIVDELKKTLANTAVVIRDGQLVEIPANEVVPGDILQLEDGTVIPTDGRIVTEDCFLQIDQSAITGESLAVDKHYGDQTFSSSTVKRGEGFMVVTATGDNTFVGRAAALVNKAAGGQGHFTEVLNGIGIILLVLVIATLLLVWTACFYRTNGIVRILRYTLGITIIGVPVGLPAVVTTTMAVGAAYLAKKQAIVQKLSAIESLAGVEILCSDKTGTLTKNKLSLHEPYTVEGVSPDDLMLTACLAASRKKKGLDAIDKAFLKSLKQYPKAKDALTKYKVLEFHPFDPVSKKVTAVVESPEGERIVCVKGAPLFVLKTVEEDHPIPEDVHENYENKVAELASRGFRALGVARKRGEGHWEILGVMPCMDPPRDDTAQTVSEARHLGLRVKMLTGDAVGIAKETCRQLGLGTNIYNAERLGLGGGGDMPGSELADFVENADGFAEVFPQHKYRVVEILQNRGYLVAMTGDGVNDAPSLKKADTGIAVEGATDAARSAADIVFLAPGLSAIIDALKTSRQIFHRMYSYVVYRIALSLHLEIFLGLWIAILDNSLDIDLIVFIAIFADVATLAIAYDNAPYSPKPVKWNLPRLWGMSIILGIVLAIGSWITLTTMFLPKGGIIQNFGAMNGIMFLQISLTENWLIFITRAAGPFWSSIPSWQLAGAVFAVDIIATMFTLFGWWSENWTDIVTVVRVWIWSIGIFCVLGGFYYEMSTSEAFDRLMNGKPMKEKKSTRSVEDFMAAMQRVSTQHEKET
Procedure: Plasma membranes containing Pma1 were isolated from S. cerevisiae RS72 cells containing the full-length cDNA of the S. cerevisiae plasma membrane H^+-ATPase isoform PMA1 under the control of the PMA1 promoter, as described in reference.
A 100-ml overnight culture in YPD medium [10 g/liter yeast extract (BD, Sparks, MD), 20 g/liter Bacto peptone (BD), 20 g/liter D-(+)-glucose] was transferred to 1 liter YPD medium and grown at room temperature and 150 rpm for 18 h for wild-type S. cerevisiae (ATCC 9763) and 7 h for C. albicans. The cells were harvested and washed in Milli-Q H2O by centrifugation at 3,360 × g. The cells were glucose activated by the addition of 10% D-(+)-glucose for 10 min while shaking. The cells were then centrifuged at 3,360 × g for 3 min and frozen. Cells (60 to 80 g, wet weight) were then disrupted by bead beating (BioSpec, Bartlesville, OK) and processed as described in reference to prepare the plasma membranes. […] All batches were validated by ATPase hydrolysis activity, pH optimum, and orthovanadate sensitivity.
as §3, with “μg/well). […]” for “μg/well).”

[5] = Compound precipitation in the fungal growth medium; assay type: physicochemical; conditions: fungal growth medium (RPMI), footnotes of Table 1
Procedure: as §4, with “microorganism. Standard errors were typically below 5%.” for “microorganism.”

Ca^2+-ATPase (SERCA1a) [6] = target: T2, Ca^2+-ATPase (SERCA1a); test: ATP hydrolysis assay, SERCA; assay type: biochemical, rabbit
Procedure: as §2, §3

Candida spp. = test: Fungal growth inhibition, Candida spp. (text summary of Table 1); assay type: cell-based; conditions: 38 μM highest concentration tested for compounds 4 and 8, read-out: MIC for several of the Candida spp. tested
Procedure: as §4, with “microorganism. Standard errors were typically below 5%.” for “microorganism.”

[7] = test system: Saccharomyces cerevisiae ATCC 9763; conditions: pH 3; cited from earlier work
S. cerevisiae cells [8] = test system: S. cerevisiae cells; set-up: method as in PMID 19413991; conditions: cited from earlier work
S. cerevisiae cells [9] = test: Intracellular ATP (iATP), S. cerevisiae; assay type: cell-based, Saccharomyces cerevisiae; conditions: S. cerevisiae and C. albicans (Fig. 5A, B); compared to compounds 14, 19 and BM2
Procedure: S. cerevisiae and C. albicans cells were grown and washed as described above for the membrane potential and integrity assay and resuspended in SG medium (0.7% yeast nitrogen base without amino acids [BD], 50 mM succinic acid adjusted to pH 7 with Trizma base) to OD600 of 0.2 and 0.1, respectively. One hundred microliters of an S. cerevisiae or C. albicans cell suspension and 1 μl compound in DMSO were incubated for 30 min. Twenty-five microliters of the suspension was then transferred to a black 96-well plate containing 25 μl BacTiter-Glo reagent (Promega, Madison, WI) and incubated for 15 min in the dark. The luminescence was read on SpectraMax X5 (Molecular Devices, Sunnyvale, CA) plate reader with a 10 s of shaking and a 0.5 s integration time. Standard curves at 10, 100, and 1,000 nM ATP were performed with every experiment.

[10] = Table 1, ATP hydrolysis at pH 7, 2 to 3 experiments, read-out: IC50 Pma1

`C[C@@H]1[C@H](O)[C@@H](C)/C=C/C=C/C=C/C=C/C=C/C=C/C=C/[C@H](O[C@@H]2O[C@H](C)[C@@H](O)[C@H](N)[C@@H]2O)C[C@@H]2O[C@](O)(C[C@@H](O)C[C@@H](O)[C@H](O)CC[C@@H](O)C[C@@H](O)CC(=O)O[C@H]1C)C[C@H](O)[C@H]2C(=O)O` [AMB, amphotericin B, reference compound] gave an IC50 (S. cerevisiae) greater than 75 µM and an IC50 (C. albicans) greater than 75 µM.

In the case of `O=C1C=CC(=O)N1c1cccc2ccccc12` [Compound 10], the IC50 (Na^+,K^+-ATPase; ATP hydrolysis at pH 7.4 (compounds marked b)) is reported as greater than 105 µM, the IC50 (Ca^2+-ATPase (SERCA1a) [1]) is reported as 3.4 ± 1.8 µM and the MIC [2] is reported as 12 µM (≈ 2.68 µg/mL). The MIC (Candida tropicalis Ct016) was 15 µM (≈ 3.35 µg/mL), the MIC [3] was 99 µM (≈ 22.1 µg/mL) and the MIC (Candida albicans SC5314) was 88 µM (≈ 19.6 µg/mL). The MIC [4] was 116 µM (≈ 25.9 µg/mL), the IC50 (S. cerevisiae Pma1; IC50 Pma1, Table 1, ATP hydrolysis at pH 6.5 (compounds marked b), 2 to 3 experiments) was 9.4 ± 1.7 µM and the IC50 (S. cerevisiae Pma1; IC50 for Pma1, ATP hydrolysis, S. cerevisiae Pma1) was less than 25 µM.

In the case of `O=C1[C@@H]2C(c3ccc(Br)cc3)=NN(c3ccccc3)[C@@H]2C(=O)N1c1ccccc1F` [Compound 2], the “Compound precipitation observed in the growth medium at concentrations down to” value [5] is reported as “d Compound precipitation was observed in the growth medium at concentrations down to 48 μM”, the IC50 (Ca^2+-ATPase (SERCA1a) [6]) is reported as greater than 105 µM and the IC50 (Na^+,K^+-ATPase; ATP hydrolysis at pH 7) is reported as greater than 105 µM. For the same compound, the MIC (Candida albicans SC5314) was greater than 150 µM, the IC50 (S. cerevisiae Pma1; [10]) was 2.1 ± 1.3 µM and the MIC (Candida spp.) was greater than 150 µM.

For `COc1ccc2[nH]c([S+]([O-])Cc3ncc(C)c(OC)c3C)nc2c1` (centres unmarked) [omeprazole], the “Concentration required for full growth inhibition of Saccharomyces cerevisiae” value [7] is given as 430 µM and the “Increase in iATP levels, S. cerevisiae” value (S. cerevisiae cells [8]) is given as 36%.

In the case of `CC[C@H]1/C=C/C=C/C[C@@H](C)[C@H](O)[C@@](C)(O)C(=O)[C@@H](C)[C@H](O)[C@@H](C)C(=O)[C@@H](C)[C@H](O)[C@@H](C)/C=C/C(=O)O[C@@H]2[C@H](C)[C@H](CC1)O[C@]1(CC[C@H](C)[C@H](C[C@@H](C)O)O1)[C@H]2C` [oligomycin, reference compound], the “Effects on iATP levels, in words” value (S. cerevisiae cells [9]) is reported as “minimal effects”.

For `N#CC(C#N)=NNc1cccc(Cl)c1` [CCCP, carbonyl cyanide m-chlorophenylhydrazone, reference compound], the “Effects on iATP levels, in words” value (S. cerevisiae cells [9]) was “minimal effects”.

Work on `CN1CCc2c(sc3c2C(=O)NC(c2ccc(-c4cccc(Cl)c4)o2)N3)C1` (centres unmarked) [Compound 13] yielded an IC50 (Ca^2+-ATPase (SERCA1a) [6]) of 22 ± 3 µM, an IC50 (Na^+,K^+-ATPase; ATP hydrolysis at pH 7) of 30.6 ± 11.1 µM and an MIC [2] of 31 µM (≈ 12.4 µg/mL). The MIC (Candida tropicalis Ct016) was greater than 150 µM, the MIC (Candida albicans SC5314) was 23 µM (≈ 9.2 µg/mL) and the MIC [4] was 47 µM (≈ 18.8 µg/mL). It also gave an IC50 (S. cerevisiae Pma1; ATP hydrolysis, S. cerevisiae Pma1, read-out: IC50 for Pma1) of less than 25 µM and an IC50 (S. cerevisiae Pma1; [10]) of 22.6 ± 12.4 µM.
